Data on 7 compounds can be found in patent US7186864B2, “Glucocorticoid mimetics, methods of making them, pharmaceutical compositions, and uses thereof” (Boehringer Ingelheim Pharmaceuticals, Inc., priority 2002, dated 2007).

Molecules are shown by their SMILES.

In the experiment the target is T1, human glucocorticoid receptor (GR) complex (Homo sapiens, UniProt P04150).
T1 construct: made in house; host or cells: insect expression system (baculovirus lysate)
T1 sequence (P04150 1-777): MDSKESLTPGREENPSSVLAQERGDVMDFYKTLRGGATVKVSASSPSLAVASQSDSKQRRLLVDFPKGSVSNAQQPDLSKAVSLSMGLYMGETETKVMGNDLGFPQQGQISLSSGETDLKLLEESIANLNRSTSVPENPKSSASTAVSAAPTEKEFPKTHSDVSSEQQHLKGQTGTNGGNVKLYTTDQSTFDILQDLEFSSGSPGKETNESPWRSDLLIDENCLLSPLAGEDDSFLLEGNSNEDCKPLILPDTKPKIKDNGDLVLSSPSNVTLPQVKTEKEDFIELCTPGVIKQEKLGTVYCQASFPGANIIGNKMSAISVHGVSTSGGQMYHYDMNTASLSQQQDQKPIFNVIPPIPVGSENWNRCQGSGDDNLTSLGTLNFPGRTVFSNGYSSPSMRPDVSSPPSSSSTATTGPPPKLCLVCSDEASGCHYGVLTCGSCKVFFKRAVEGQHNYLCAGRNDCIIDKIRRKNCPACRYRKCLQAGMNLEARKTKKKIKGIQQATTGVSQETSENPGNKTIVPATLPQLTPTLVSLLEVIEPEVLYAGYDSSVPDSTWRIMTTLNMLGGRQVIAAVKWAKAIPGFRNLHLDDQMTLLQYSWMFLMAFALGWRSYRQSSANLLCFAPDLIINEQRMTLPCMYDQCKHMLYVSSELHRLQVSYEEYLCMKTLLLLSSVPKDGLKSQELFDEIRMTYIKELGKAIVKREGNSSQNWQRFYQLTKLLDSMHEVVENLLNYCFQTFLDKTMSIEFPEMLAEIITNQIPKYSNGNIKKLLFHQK
The experiment can be described thus: Glucocorticoid receptor competitive binding assay (fluorescence polarization, TAMRA-labeled dexamethasone probe). The conditions noted are these: qualitative statement, values not given. On the procedure:
Compounds of the invention were evaluated for binding to the steroid receptor by a fluorescence polarization competitive binding assay. Detailed descriptions for preparation of recombinant glucocorticoid receptor (GR) complex used in the assay is described in Goldrick et al., U.S. provisional application No. 60/291,877, filed May 18, 2001 (corresponding to Goldrick et al., U.S. nonprovisional application No. 10/151,133, filed May 20, 2002) both incorporated herein by reference in their entirety. Preparation of the tetramethyl rhodamine (TAMRA)-labeled dexamethasone probe was accomplished using a standard literature procedure (M. Pons et al., J. Steroid Biochem., 1985, 22, pp. 267–273).
A. Glucocorticoid Receptor Competitive Binding Assay
Step 1. Characterization of the Fluorescent Probe
The wavelengths for maximum excitation and emission of the fluorescent probe should first be measured. An example of such a probe is rhodamine (TAMRA)-labeled dexamethasone.
The affinity of the probe for the steroid receptor was then determined in a titration experiment. The fluorescence polarization value of the probe in assay buffer was measured on an SLM-8100 fluorometer using the excitation and emission maximum values described above. Aliquots of expression vector lysate were added and fluorescence polarization was measured after each addition until no further change in polarization value was observed. Non-linear least squares regression analysis was used to calculate the dissociation constant of the probe from the polarization values obtained for lysate binding to the probe.
Step 2. Screening for Inhibitors of Probe Binding
This assay uses fluorescence polarization (FP) to quantitate the ability of test compounds to compete with tetramethyl rhodamine (TAMRA)-labeled dexamethasone for binding to a human glucocorticoid receptor (GR) complex prepared from an insect expression system. The assay buffer was: 10 mM TES, 50 mM KCl, 20 mM Na2MoO4.2H2O, 1.5 mM EDTA, 0.04% w/v CHAPS, 10% v/v glycerol, 1 mM dithiothreitol, pH 7.4. Test compounds were dissolved to 1 mM in neat DMSO and then further diluted to 10× assay concentration in assay buffer supplemented with 10% v/v DMSO. Test compounds were serially diluted at 10× assay concentrations in 10% DMSO-containing buffer in 96-well polypropylene plates. Binding reaction mixtures were prepared in 96-well black Dynex microtiter plates by sequential addition of the following assay components to each well: 15 μL of 10× test compound solution, 85 μL of GR-containing baculovirus lysate diluted 1:170 in assay buffer, and 50 μL of 15 nM TAMRA-labeled dexamethasone. Positive controls were reaction mixtures containing no test compound; negative controls (blanks) were reaction mixtures containing 0.7 μM to 2 μM dexamethasone. The binding reactions were incubated for 1 hour at room temperature and then read for fluorescence polarization in the LJL Analyst set to 550 nm excitation and 580 nm emission, with the Rhodamine 561 dichroic mirror installed. IC50 values were determined by iterative non-linear curve fitting of the FP signal data to a 4-parameter logistic equation.
On the technique in general: Polarisation of emitted light reports the rotation of a fluorescent probe.

With `COc1ccc(F)cc1C(C)(C)CC(N)(Cc1cc(C)cc(C)c1)C(F)(F)F` (stereo not shown) [Compound 1, 1-(3,5-Dimethyl-benzyl)-3-(5-fluoro-2-methoxy-phenyl)-3-methyl-1-trifluoromethyl-butylamine], the “activity in the GR binding assay” value is reported as “demonstrated activity”.

With `COc1ccc(F)cc1C(C)(C)CC(N)(Cc1cc(Cl)cc(Cl)c1)C(F)(F)F` (stereo not shown) [Compound 2, 1-(3,5-Dichloro-benzyl)-3-(5-fluoro-2-methoxy-phenyl)-3-methyl-1-trifluoromethyl-butylamine], the “activity in the GR binding assay” value is listed as “demonstrated activity”.

Regarding `COc1ccc(F)cc1C(C)(C)CC(N)(Cc1ccc(Cl)c(Cl)c1)C(F)(F)F` (stereo not shown) [Compound 3, 1-(3,4-Dichloro-benzyl)-3-(5-fluoro-2-methoxy-phenyl)-3-methyl-1-trifluoromethyl-butylamine], the “activity in the GR binding assay” value is given as “demonstrated activity”.

Turning to `COc1ccc(F)cc1C(C)(C)CC(N)(Cc1cc(C(F)(F)F)cc(Cl)c1F)C(F)(F)F` (stereo not shown) [Compound 4, 1-(3-Chloro-2-fluoro-5-trifluoromethyl-benzyl)-3-(5-fluoro-2-methoxy-phenyl)-3-methyl-1-trifluoromethyl-butylamine], the “activity in the GR binding assay” value is recorded as “demonstrated activity”.

`COc1ccc(F)cc1C(C)(C)CC(N)(Cc1ccc(C#N)cc1Cl)C(F)(F)F` (stereo not shown) [Compound 5, 4-[2-Amino-4-(5-fluoro-2-methoxy-phenyl)-4-methyl-2-trifluoromethyl-pentyl]-3-chloro-benzonitrile]: the “activity in the GR binding assay” value is “demonstrated activity”.

With `Cc1cc(C)cc(CC(N)(CC(C)(C)c2cc(F)ccc2O)C(F)(F)F)c1` (stereo not shown) [Compound 6, 2-[3-Amino-3-(3,5-dimethyl-benzyl)-4,4,4-trifluoro-1,1-dimethyl-butyl]-4-fluoro-phenol], the “activity in the GR binding assay” value is “demonstrated activity”.

As to `CC(C)(CC(N)(Cc1cc(Cl)cc(Cl)c1)C(F)(F)F)c1cc(F)ccc1O` (stereo not shown) [Compound 7, 2-[3-Amino-3-(3,5-dichloro-benzyl)-4,4,4-trifluoro-1,1-dimethyl-butyl]-4-fluoro-phenol], the “activity in the GR binding assay” value is “demonstrated activity”.
